# Experimental data from US7214771B2, “Nucleic acid and protein expression thereby and their involvement in stress” (University of Medicine & Dentistry of New Jersey, priority 1999, dated 2007).
# Assays:
# [1] = test system: human ovarian cancer cells; conditions: cited from earlier work
# [2] = test system: RIAZ; assay: Localization of GFP/RIAZ in HTB-46 cells cotransfected with RIα (fluorescence microscopy); type: cell-based, human; conditions: HTB-46 cells cotransfected with RIα and GFP/RIAZ; cAMP for 8 hr
# Procedure: FIG. 10 depicts the effect of RIα and cAMP on localization of RIAZ. GJP fusions at the N-terminus (GFP/RIAZ) and the C-terminus (RIAZ/GFP) were generated. […] Localization of GFP/RIAZ on co-transfection with RIα is redistributed to the nucleus on addition of cAMP(Panel D). In more detail, nuclear localization of RIAZ and regulation of its localization by RIα in the presence or absence of cAMP was performed as follows: (A,B) HTB-46 cells were plated the night before and then transfected with GFP/RIAZ the following day. Localization of RIAZ was visualized 24 hr after transfection using a fluorescence microscope. (C) HTB-46 cells were cotransfected with RIα and GFP/RIAZ in the absence of cAMP. (D) RIAZ distribution after addition of cAMP for 8 hr.
# To further understand the mechanisms of interaction of RIα with RIAZ, we constructed a hybrid protein between RIAZ and the green fluorescence protein (GFP), with GFP fused to either the N-terminal (GFP/RIAZ) or the C-terminal (RIAZ/GFP) end of RIAZ. Distribution of RIAZ was visualized using a Zeiss Axioskop fluorescence microscope. […] Even though the nuclear localization of RIAZ was not affected by the position of GFP either at the amino or the carboxy terminal end of RIAZ, however, whether the transcriptional activity of RIAZ may be affected remains to be determined. […]
# [3] = test system: human bladder cancer and human testicular embryonal germ cell carcinoma; conditions: simultaneous cisplatin and dipyridamole; high concentrations of dipyridamole; cited from earlier work
# [4] = molecular target: T1, RIα (Homo sapiens, UniProt P10644); assay: Binding of in vitro-translated RIAZ to immobilized GST-RIα (pull down); conditions: [35S]methionine labeled RIAZ; GST as control
# T1 construct: made in house; host or cells: E. coli (GST-RIα); RIAZ made by in vitro translation
# T1 sequence (P10644 whole entry): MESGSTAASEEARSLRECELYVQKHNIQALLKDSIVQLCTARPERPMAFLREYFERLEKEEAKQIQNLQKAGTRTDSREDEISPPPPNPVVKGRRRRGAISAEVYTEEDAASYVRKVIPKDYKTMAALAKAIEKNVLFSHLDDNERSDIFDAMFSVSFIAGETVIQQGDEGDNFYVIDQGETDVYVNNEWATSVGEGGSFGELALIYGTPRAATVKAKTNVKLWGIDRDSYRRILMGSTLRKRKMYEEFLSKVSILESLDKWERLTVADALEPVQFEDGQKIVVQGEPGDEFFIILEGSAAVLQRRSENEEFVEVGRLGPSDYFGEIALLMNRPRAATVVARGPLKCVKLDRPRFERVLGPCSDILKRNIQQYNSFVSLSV
# Procedure: FIG. 8. Binding of in-vitro translated RIAZ protein to RIα. GST and GST-RIα proteins were immobilized on glutathione resins and then incubated with [^35S]methinine labeled RIAZ. The complexes were thoroughly washed and eluted in gel-loading buffer, separated by SDS-PAGE, and exposed to X-ray film.
# Deletion of a cluster of ATG in the 5′ end of the RIAZ cDNA seemed to enhance translation from the putative ATG start codon of the open reading frame that encode the BTB-POZ domain zinc finger. […] In addition, based on the functions of other BTB-POZ zinc finger proteins in this family, which play various roles in apoptosis, transcription repression, and regulation of cell proliferation, we speculate that RIAZ may have a role in these important cellular functions. Since the emergence of drug resistance in cancer is also intimately influenced by apoptosis, alterations in cellular transcription programs and tumorigenesis, therefore, it is conceivable that RIα mediated drug resistance may be executed through the actions of RIAZ. Biochemical and molecular characterizations of the interaction of RIAZ with RI and its function and significance in drug resistance may yield insights into the mechanisms of this novel cAMP signaling pathway.
molecule,measurement,setting,value
CC(C)Cn1c(=O)n(C)c(=O)c2[nH]cnc21 [3-isobutyl-1-methylxanthine],effect on cisplatin sensitivity,[1]; treated ovarian carcinoma cells compared to untreated cells,increase in cisplatin sensitivity
Nc1ncnc2c1nc(Br)n2[C@@H]1O[C@@H]2COP(=O)(O)O[C@H]2[C@H]1O [8-Br-cAMP],RIAZ subcellular distribution after treatment,[2],translocate to the nucleus
OCCN(CCO)c1nc(N2CCCCC2)c2nc(N(CCO)CCO)nc(N3CCCCC3)c2n1 [dipyridamole],effect on growth of cisplatin-resistant cells,"[1]; dipyridamole treatment, cisplatin-resistant cells",did not affect the growth
same,tumor response in combination with cisplatin,[3],complete tumor regression
"RIAZ: novel BTB-POZ domain zinc finger protein of 641 amino acids, SEQ ID NO: 17 (protein, listed as Homo sapiens) MERVNDASCGPSGCYTYQVSRHSTEMLHNLNQQRKNGGRFCDVLLRVGDESFPAHRAVLAACSEYFESVFSAQLGDGGAADGGPADVGGATAAPGGGAGGSRELEMHTISSKVFGDILDFAYTSRIVVRLESFPELMTAAKFLLMRSVIEICQEVIKQSNVQILVPPARADIMLFRPPGTSDLGFPLDMTNGAALAANSNGIAGSMQPEEEAARAAGAAIAGQASLPVLPGVDRLPMVAGPLSPQLLTSPFPSVASSAPPLTGKRGRGRPRKANLLDSMFGSPGGLREAGILPCGLCGKVFTDANRLRQHEAQHGVTSLQLGYIDLPPPRLGENGLPISEDPDGPRKRSRTRKQVACEICGKIFRDVYHLNRHKLSHSGEKPYSCPVCGLRFKRKDRMSYHVRSHDGSVGKPYICQSCGKGFSRPDHLNGHIKQVHTSERPHKCQTCNASFATRDRLRSHLACHEDKVPCQVCGKYLRAAYMADHLKKHSEGPSNFCSICNREGQKCSHQDPIESSDSYGDLSDASDLKTPEKQSANGSFSCDMAVPKNKMESDGEKKYPCPECGSFFRSKSYLNKHIQKVHVRALGGPLGDLGPALGSPFSPQQNMSLLESFGFQIVQSAFASSLVDPEVDQQPMGPEGK",binding to GST-RIα,[4],showed binding to GST-RIα but not to GST control
